What was measured:
[1] = test system: LPS-induced lethality in mice; conditions: cited from earlier work
[2] = target: T1, human recombinant MMP-7 catalytic domain (Homo sapiens, UniProt P09237); assay: Recombinant MMP fluorescent assay kit (OmniMMP substrate); assay type: biochemical
T1 construct: a panel of ten human recombinant MMP catalytic domains; purchased Enzo Life Sciences BML-AK016
T1 sequence (P09237 95-267): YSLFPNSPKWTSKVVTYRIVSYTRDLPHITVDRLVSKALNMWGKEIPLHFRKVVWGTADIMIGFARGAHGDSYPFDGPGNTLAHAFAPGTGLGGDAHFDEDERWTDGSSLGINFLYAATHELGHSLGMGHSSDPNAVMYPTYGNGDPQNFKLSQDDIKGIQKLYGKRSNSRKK
Protocol: (§1) The specificity of the synthesized inhibitor was determined in vitro against a panel of ten human recombinant MMP catalytic domains using a fluorescent assay kit (BML-AK016, Enzo Life Sciences). Briefly, the compound was dissolved in dimethyl sulfoxide (DMSO) and further diluted in assay buffer (50 mM HEPES, 10 mM CaCl2, 0.05% Brij-35, and pH 7.5). Ten MMPs (MMP-1, MMP-2, MMP-3, MMP-7, MMP-8, MMP-9, MMP-10, MMP-12, MMP-13, and MMP-14) were individually incubated with varying concentrations of inhibitor for one hour at 37°C, followed by addition of a quenched fluorogenic substrate (OmniMMP fluorogenic substrate Mca-Pro-Leu-Gly-Leu-Dpa-Ala-Arg-NH2 [Mca is (7-methoxycoumarin-4-yl)-acetyl; Dpa is N-3-(2,4-dinitrophenyl)-L-α-β-diaminopropionyl], 4 μM in assay). […] After each fluorescent measurement the well plates were shaken for 2 sec to agitate the reagents. In each experiment we included a blank, a substrate control (substrate only in assay buffer), a positive control (NNGH, 1.3 μM final concentration), and negative control (only substrate and inhibitor in assay buffer). The latter was implemented to exclude possible interference of the inhibitor with the substrate. […] The IC50 values were determined in a single experimental run in duplicate. Data analysis and curve fitting for determination of IC50 values were performed in GraphPad Prism 6.

[3] = target: T2, human recombinant MMP-8 catalytic domain (Homo sapiens, UniProt P22894); assay: as above; assay type: biochemical
T2 construct: a panel of ten human recombinant MMP catalytic domains; purchased Enzo Life Sciences BML-AK016
Protocol: as §1

[4] = target: T3, human recombinant MMP-10 catalytic domain (Homo sapiens, UniProt P09238); assay: as above; assay type: biochemical
T3 construct: a panel of ten human recombinant MMP catalytic domains; purchased Enzo Life Sciences BML-AK016
Protocol: as §1

[5] = target: T4, human recombinant MMP-1 catalytic domain (Homo sapiens, UniProt P03956); assay: as above; assay type: biochemical
T4 construct: a panel of ten human recombinant MMP catalytic domains; purchased Enzo Life Sciences BML-AK016
T4 sequence (P03956 100-269 limits assumed): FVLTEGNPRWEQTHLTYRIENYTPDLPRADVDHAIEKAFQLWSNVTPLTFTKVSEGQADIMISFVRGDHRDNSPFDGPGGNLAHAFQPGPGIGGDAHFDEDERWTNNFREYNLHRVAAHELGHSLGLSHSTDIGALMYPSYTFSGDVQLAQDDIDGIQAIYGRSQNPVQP
Protocol: as §1

[6] = target: T5, human recombinant MMP-3 catalytic domain (Homo sapiens, UniProt P08254); assay: as above; assay type: biochemical
T5 construct: a panel of ten human recombinant MMP catalytic domains; purchased Enzo Life Sciences BML-AK016
Protocol: as §1

[7] = target: T6, human recombinant MMP-13 catalytic domain (Homo sapiens, UniProt P45452); assay: as above; assay type: biochemical
T6 construct: a panel of ten human recombinant MMP catalytic domains; purchased Enzo Life Sciences BML-AK016
Protocol: as §1

[8] = target: T7, human recombinant MMP-2 catalytic domain (Homo sapiens, UniProt P08253); assay: as above; assay type: biochemical
T7 construct: a panel of ten human recombinant MMP catalytic domains; purchased Enzo Life Sciences BML-AK016
Protocol: as §1

[9] = target: T8, human recombinant MMP-14 catalytic domain (Homo sapiens, UniProt P50281); assay: as above; assay type: biochemical
T8 construct: a panel of ten human recombinant MMP catalytic domains; purchased Enzo Life Sciences BML-AK016
Protocol: as §1

[10] = target: T9, human recombinant MMP-9 catalytic domain (Homo sapiens, UniProt P14780); assay: as above; assay type: biochemical
T9 construct: a panel of ten human recombinant MMP catalytic domains; purchased Enzo Life Sciences BML-AK016
Protocol: as §1

[11] = test system: primary mouse choroid plexus epithelial cells; assay: Blood-CSF barrier permeability in vitro (ECIS impedance); assay type: cell-based; conditions: 1 μM inhibitor 1 hour before LPS 1000 ng/mL; n = 3
Protocol: Culturing primary mouse choroid plexus epithelial cells was done as described. In brief, 2–9-day-old pups were decapitated and brains were isolated. Choroid plexuses from all four ventricles were isolated under a dissection microscope. The cells were dissociated enzymatically by incubating them for 5–7 min with pronase (isolated from Streptomyces griseus, Sigma). Digestion was stopped by adding an excess of HBSS buffer and the cells were washed twice with HBSS. The cell pellet was resuspended in DMEM-F12 culture medium and plated on laminin-coated plates. Two days later, they were shifted to DMEM-F12 containing cytosine arabinoside (Ara-C) to eliminate growth of fibroblasts. Cultures were maintained at 37°C in 5% CO2. Purity of the cultures was confirmed by checking the levels of transthyretin (TTR) both by qPCR and by immunostaining. Primary CPE cells retained the epithelial and the barrier properties which were confirmed by staining for E-cadherin, ZO-1, and occludin. The electric cell-substrate impedance (ECIS) technique (Applied Biophysics) was used to monitor barrier properties as described before. 250.000 cells per well were seeded onto laminin-coated 8W10E array plates (Applied Biophysics) and the array holder was placed in a standard cell culture incubator (37°C, 100% humidity, and 5% CO2). Array plates were connected to the instrument and multifrequency measurements were started. […]

[12] = test system: LPS-induced lethality in C57BL/6 mice; assay: Endotoxemia model: survival after lethal LPS challenge; assay type: in vivo, mouse; conditions: 100 μg i.p. 15 min before and 3 and 6 h after LPS 200 μg/20 g i.p. (LD100), log-rank test
From the text: Female C57BL/6J (8–10 weeks old) mice were purchased from Janvier Labs (France) and MMP-12 knockout mice (MMP-12^−/−) (in C57BL/6J background together with littermate MMP-12^+/+ controls) were obtained from Dr. Steven Shapiro (University of Pittsburgh, USA). C57BL/6 and MMP-12^−/− mice were housed with 4–6 mice/cage with ad libitum access to food and water and with a 14-hour light/10-hour dark cycle in a specific pathogen-free animal facility and conventional facility, respectively. All experiments were approved by the Ethics Committee of the Faculty of Sciences of Ghent University.
Endotoxemia was induced by intraperitoneal (i.p.) injection of lipopolysaccharide (LPS) from Salmonella enterica serotype abortus equi (Sigma) dissolved in PBS. […] Control animals received i.p. injections of PBS. Rectal temperature was measured periodically after challenge. 100 μg MMP-12i (1 μg/μL) or vehicle control was administered intraperitoneally at different time points: 15 min before and 3 and 6 hours after LPS administration.

[13] = target: T10, human recombinant MMP-12 catalytic domain (Homo sapiens, UniProt P39900); assay: Recombinant MMP fluorescent assay kit (OmniMMP substrate), initial screen; assay type: biochemical; conditions: pH 7.5, 1 h incubation at 37°C, OmniMMP substrate 4 μM, read-out: apparent IC50 MMP-12 (initial screen)
T10 construct: human recombinant MMP-3 (72006, AnaSpec) and MMP-12 catalytic domains (55525-1, AnaSpec); purchased AnaSpec 55525-1
Protocol: as §1

[14] = target: T10, human recombinant MMP-12 catalytic domain; assay: Detailed dose-response with Substrate XIII (AnaSpec) quenched fluorescent substrate; assay type: biochemical
Protocol: […] Briefly, the compound was dissolved in dimethyl sulfoxide (DMSO) and further diluted in assay buffer (50 mM HEPES, 10 mM CaCl2, 0.05% Brij-35, and pH 7.5). […] In each experiment we included a blank, a substrate control (substrate only in assay buffer), a positive control (NNGH, 1.3 μM final concentration), and negative control (only substrate and inhibitor in assay buffer). The latter was implemented to exclude possible interference of the inhibitor with the substrate. […] The IC50 values were determined in a single experimental run in duplicate. Data analysis and curve fitting for determination of IC50 values were performed in GraphPad Prism 6.

T10 sequence (P39900 106-263 limits assumed): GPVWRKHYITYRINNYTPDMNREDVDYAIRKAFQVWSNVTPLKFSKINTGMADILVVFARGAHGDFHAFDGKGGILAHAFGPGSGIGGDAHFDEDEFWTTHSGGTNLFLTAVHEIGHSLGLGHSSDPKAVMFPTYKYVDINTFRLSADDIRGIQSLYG
T5 sequence (P08254 100-272 limits assumed): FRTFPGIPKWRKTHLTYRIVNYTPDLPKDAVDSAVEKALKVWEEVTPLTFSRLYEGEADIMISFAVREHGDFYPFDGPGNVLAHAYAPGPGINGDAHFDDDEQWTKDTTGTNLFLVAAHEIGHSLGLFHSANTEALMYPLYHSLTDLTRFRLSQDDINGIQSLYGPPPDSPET
T7 sequence (P08253 110-446 limits assumed): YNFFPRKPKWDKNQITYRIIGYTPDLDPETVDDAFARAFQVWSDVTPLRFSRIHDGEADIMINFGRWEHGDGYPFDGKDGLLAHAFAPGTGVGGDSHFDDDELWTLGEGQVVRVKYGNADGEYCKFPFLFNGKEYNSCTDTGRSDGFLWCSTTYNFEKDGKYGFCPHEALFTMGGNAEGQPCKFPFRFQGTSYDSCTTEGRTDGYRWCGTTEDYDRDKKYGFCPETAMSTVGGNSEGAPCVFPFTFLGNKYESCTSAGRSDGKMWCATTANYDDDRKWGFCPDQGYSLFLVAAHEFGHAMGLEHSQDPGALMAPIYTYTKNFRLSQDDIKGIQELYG
T3 sequence (P09238 99-263 limits assumed): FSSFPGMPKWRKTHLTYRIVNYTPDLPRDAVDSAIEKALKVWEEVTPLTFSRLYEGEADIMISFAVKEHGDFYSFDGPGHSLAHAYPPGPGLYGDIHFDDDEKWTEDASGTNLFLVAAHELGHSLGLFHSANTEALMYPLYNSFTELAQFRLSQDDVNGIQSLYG
T2 sequence (P22894 100-262 limits assumed): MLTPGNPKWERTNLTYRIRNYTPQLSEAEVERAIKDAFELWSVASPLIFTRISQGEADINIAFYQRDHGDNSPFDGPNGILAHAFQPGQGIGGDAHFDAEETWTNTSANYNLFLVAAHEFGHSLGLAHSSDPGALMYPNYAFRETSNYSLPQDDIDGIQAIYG
T9 sequence (P14780 107-444 limits assumed): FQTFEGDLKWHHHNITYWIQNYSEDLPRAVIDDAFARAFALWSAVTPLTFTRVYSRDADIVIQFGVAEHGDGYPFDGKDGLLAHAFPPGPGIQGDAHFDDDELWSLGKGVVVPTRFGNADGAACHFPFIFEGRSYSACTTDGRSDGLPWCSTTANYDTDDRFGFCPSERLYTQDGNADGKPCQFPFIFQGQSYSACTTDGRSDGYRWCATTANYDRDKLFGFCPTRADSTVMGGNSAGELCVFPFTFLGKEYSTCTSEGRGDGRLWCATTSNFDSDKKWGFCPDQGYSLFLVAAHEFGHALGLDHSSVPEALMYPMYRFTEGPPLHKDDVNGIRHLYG

## CNC(=O)[C@H](Cc1ccccc1)NC(=O)[C@H](CC(C)C)[C@H](CSc1cccs1)C(=O)NO [BB-94]
[1]
  protection from LPS-induced lethality: protected from LPS-induced lethality

## Cc1cc(=O)c(O)c(C(=O)NCc2ccc(-c3ccc(-c4ccccc4)cc3)cc2)o1 [Compound 9, N-([1,1′:4′,1′′-Terphenyl]-4-ylmethyl)-3-hydroxy-6-methyl-4-oxo-4H-pyran-2-carboxamide]
[2]
  IC50: > 50 µM
[3]
  IC50: 2 to 50 µM
[4]
  IC50: > 50 µM
[5]
  IC50: > 50 µM
[6]
  IC50: > 50 µM
[7]
  IC50: > 50 µM
[8]
  IC50: 2 to 50 µM
[9]
  IC50: 2 to 50 µM
[10]
  IC50: > 50 µM
[11]
  LPS-induced drop in normalized resistance (ECIS, low frequency): significantly reduced
[12]
  LPS-induced lethality (survival) vs vehicle: significant reduction in LPS-induced lethality
[13]
  IC50: < 2 µM
[14]; Figure 1(c) fitted dose-response curve, read-out: log(IC50) MMP-12 (converted)
  IC50: 0.177 µM
[14]; Substrate XIII (AnaSpec), nonlinear regression
  inhibitory plateau at higher inhibitor concentrations, MMP-12: 72 ± 1.75%
[14]; Substrate XIII (AnaSpec), nonlinear regression of dose-response curve, read-out: relative IC50 MMP-12
  IC50: 0.177 µM
